# Patent publication US20250163051A1, “PYRIMIDO AROMATIC RING COMPOUND AND USE THEREOF IN DRUG” (SUNSHINE LAKE PHARMA CO., LTD., priority 2022, published 2025)
# Like-named read-outs stand apart in the source and are kept apart here.
# How the values were obtained:
# CYP1A2 = biological target: T1, CYP1A2 (Homo sapiens, UniProt P05177); assay: Inhibition of human liver microsomal CYP1A2; format: in vitro ADME; conditions: human liver microsomes, 10 μM test substance; read-out: Relative inhibition rate (%) CYP1A2
# T1 construct: from tissue; host or cells: human liver microsomes
# T1 sequence (P05177 1-516): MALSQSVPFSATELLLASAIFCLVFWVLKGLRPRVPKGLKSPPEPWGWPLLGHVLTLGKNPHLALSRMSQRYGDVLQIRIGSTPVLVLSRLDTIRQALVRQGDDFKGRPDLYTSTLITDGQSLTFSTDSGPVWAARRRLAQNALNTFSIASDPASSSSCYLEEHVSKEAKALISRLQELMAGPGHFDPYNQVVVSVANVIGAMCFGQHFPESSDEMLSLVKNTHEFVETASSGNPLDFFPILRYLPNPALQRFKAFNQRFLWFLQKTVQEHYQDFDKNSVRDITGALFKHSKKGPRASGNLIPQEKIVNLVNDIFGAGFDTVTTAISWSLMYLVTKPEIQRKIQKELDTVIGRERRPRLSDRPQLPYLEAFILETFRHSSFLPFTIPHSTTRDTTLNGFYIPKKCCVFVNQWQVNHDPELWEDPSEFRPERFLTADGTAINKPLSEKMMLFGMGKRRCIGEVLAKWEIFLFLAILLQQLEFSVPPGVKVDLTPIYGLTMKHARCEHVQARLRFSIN
# Experimental: (§1) Experimental purpose: The inhibitory effects of the test compounds on the major metabolizing enzymes CYP1A2, CYP2C19, CYP2D6 and CYP3A4 in microsomes were evaluated using the human liver microsomal system. Experimental method: The test substance was incubated with a suspension of human liver microsomes containing cytochrome P450 enzymes CYP1A2, CYP2C19, CYP2D6 and CYP3A4 at a concentration of 10 μM in the final incubation system. The known substrates were metabolized by the corresponding single enzymes to generate specific metabolites, and the metabolites were determined by UPLC-MS/MS method. The relative inhibition rate (%) was calculated by the percentage reduction of metabolite production by the test compound and solvent DMSO in the same time period. N is the concentration value of the probe substrate metabolite and it is assumed that the […] with or without inhibitor at 0 min is 0. N+inh is the metabolite concentration in the group with inhibitor, and Nveh is the metabolite concentration in the group without inhibitor. The results of the inhibition test of the compounds of the present invention on human liver microsomal CYP enzymes are shown in Table C.
# hTLR7 = biological target: T2, hTLR7 (Homo sapiens, UniProt Q9NYK1); assay: Agonistic activity on human TLR7 in HEK-Blue hTLR7 cells (QUANTI-Blue); format: cell-based; conditions: 24 h incubation, OD650, read-out: hTLR 7 EC50
# T2 construct: expressed in transfected cells; host or cells: HEK-Blue hTLR7 cells
# T2 sequence (Q9NYK1 27-1049): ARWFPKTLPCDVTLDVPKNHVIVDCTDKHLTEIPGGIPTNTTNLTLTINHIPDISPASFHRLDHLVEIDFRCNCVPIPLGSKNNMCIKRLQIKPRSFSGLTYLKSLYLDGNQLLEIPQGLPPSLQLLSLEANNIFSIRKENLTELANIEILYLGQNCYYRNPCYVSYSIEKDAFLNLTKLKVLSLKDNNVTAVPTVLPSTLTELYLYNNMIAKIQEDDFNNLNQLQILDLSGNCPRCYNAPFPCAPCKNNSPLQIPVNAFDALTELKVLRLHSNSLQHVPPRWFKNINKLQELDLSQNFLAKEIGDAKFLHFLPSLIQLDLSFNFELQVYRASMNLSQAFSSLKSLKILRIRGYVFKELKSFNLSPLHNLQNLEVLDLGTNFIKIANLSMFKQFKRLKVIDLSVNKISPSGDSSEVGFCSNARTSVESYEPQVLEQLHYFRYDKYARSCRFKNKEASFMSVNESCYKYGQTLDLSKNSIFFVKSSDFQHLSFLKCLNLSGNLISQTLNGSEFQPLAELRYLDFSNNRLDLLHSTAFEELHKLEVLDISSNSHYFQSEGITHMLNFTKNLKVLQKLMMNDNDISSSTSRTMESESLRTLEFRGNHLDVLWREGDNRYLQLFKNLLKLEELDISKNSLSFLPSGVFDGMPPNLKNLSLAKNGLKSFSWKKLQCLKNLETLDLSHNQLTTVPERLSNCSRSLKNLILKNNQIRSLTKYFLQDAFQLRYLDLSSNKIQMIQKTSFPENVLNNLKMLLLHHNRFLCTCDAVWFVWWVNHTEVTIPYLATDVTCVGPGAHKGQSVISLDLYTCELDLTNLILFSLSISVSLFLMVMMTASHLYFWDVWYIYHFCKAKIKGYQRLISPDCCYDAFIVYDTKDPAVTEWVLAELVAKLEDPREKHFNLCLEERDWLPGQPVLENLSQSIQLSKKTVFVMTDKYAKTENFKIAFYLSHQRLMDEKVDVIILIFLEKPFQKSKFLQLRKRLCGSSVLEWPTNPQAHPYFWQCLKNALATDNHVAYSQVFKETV
# Experimental: (§2) Purpose: HEK-Blue™ hTLR7 and HEK-Blue™ hTLR8 cells were used to detect the agonist and cytotoxic activities of compounds against hTLR7 and hTLR8.
# (§3) The experimental steps were as shown below: • 1) Preparation of compound: The compound was prepared into a 20 mM stock solution with DMSO, and then the stock solution was diluted 3-fold in a gradient and added to a 96-well plate, for a total of 10 concentrations, with duplicate wells for each concentration. For negative control wells, 0.5 μL DMSO was added to each well. The final DMSO concentration was 0.5%. • 2) HEK-Blue™ hTLR7 or HEK-Blue™ hTLR8 cells were suspended in culture medium and then seeded into 96-well plates containing compounds at a cell count of 50,000 per well. The compounds and cells were incubated for 24 h at 37° C., 5% Co2. • 3) QUANTI-Blue was used for the detection solution: to a mixture of 1 mL of QB reagent and 1 mL of QB buffer was added 98 mL of sterile water, the mixture was mixed and dissolved, and then placed at room temperature for 10 min. • 4) Activity test of the compound: 20 μL of the culture supernatant in step 2) was added to each well of a 96-well plate containing 180 μL of QUANTI-Blue detection solution. After incubation at 37° C. for 1 h, the absorbance at 650 nm (OD650) was detected using a multifunctional microplate reader Flextation III. • 5) Detection of cell activity: The chemiluminescent signal (RLU) was detected using the multifunctional microplate reader Flextation III according to the instructions of Celltiter-Glo. • 6) Data analysis
# Activity of compounds: OD650 values were analyzed using GraphPad Prism software, and the compound dose-effect curves were fitted to calculate the EC50 values of the compounds.
# [1] = Cell toxicity (Celltiter-Glo) in HEK-Blue hTLR8 cells; conditions: human
# Experimental: as §2, §3
# Detection of cell activity: The calculation formula for cell activity % is as follows.
# The cell activity % values were analyzed using GraphPad Prism software, and the compound dose-effect curves were fitted to calculate the CC50 values of the compounds.
# Cell activity %=RLU compound/RLU DMSO Control*100%
# CYP2B6 = assay: Induction of CYP2B6 in frozen human hepatocytes; format: in vitro ADME; conditions: 72 h induction, concentration and readout not stated; for CYP2B6 Induction percentage relative to positive control (%): positive control Phenobarbital
# Experimental: Experimental purpose: Using frozen human hepatocytes as the test system, the induction effects of the test substances on CYP1A2, CYP2B6 and CYP3A4 were evaluated from two aspects of enzyme activity and mRNA level.
# Experimental method: 24 hours after cell plating, induction was started by adding medium containing the test compound (test concentrations were 10, 1, and 0.1 μM), and fresh drug-containing medium was replaced every 24 hours. After 72 hours of induction, the medium was replaced with medium containing CYP1A2, CYP2B6, and CYP3A4 specific substrates for 30 minutes of incubation. 100 μL was taken for treatment, and the labeled metabolites of the substrates were detected to evaluate the enzyme activity level. Finally, the cells were lysed and reverse transcribed, and the expression levels of CYP1A2, CYP2B6 and CYP3A4 genes in the cells were evaluated by real-time quantitative PCR.
# The induction fold of the test compound compared with the blank control and the induction percentage of the test compound compared with the positive control were used as the basis for evaluating the induction potential of the test compound. Among them, the positive control for CYP1A2 is Omeprazole; the positive control for CYP2B6 is Phenobarbital; the positive control for CYP3A4 is Rifampicin.
# CYP2D6 = biological target: T3, CYP2D6 (Homo sapiens, UniProt P10635); assay: Inhibition of human liver microsomal CYP2D6; format: in vitro ADME; conditions: human liver microsomes, 10 μM test substance; read-out: Relative inhibition rate (%) CYP2D6
# T3 construct: from tissue; host or cells: human liver microsomes
# T3 sequence (P10635 whole entry): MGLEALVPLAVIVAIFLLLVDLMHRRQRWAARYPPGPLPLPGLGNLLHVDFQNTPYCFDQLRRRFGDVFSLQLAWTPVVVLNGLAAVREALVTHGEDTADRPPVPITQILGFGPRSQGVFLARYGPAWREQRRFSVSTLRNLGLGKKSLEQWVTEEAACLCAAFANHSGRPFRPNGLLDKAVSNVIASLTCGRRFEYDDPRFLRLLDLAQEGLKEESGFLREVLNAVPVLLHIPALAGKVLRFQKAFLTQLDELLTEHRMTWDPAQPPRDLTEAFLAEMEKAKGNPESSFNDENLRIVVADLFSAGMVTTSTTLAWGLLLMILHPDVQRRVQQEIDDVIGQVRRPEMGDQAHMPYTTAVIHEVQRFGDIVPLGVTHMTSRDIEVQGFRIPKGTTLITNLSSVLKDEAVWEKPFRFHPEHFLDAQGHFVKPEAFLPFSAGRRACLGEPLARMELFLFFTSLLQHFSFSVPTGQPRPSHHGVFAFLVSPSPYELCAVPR
# Experimental: as §1
# CYP3A4 = biological target: T4, CYP3A4 (Homo sapiens, UniProt P08684); assay: Inhibition of human liver microsomal CYP3A4; format: in vitro ADME; conditions: human liver microsomes, 10 μM test substance
# T4 construct: from tissue; host or cells: human liver microsomes
# T4 sequence (P08684 whole entry): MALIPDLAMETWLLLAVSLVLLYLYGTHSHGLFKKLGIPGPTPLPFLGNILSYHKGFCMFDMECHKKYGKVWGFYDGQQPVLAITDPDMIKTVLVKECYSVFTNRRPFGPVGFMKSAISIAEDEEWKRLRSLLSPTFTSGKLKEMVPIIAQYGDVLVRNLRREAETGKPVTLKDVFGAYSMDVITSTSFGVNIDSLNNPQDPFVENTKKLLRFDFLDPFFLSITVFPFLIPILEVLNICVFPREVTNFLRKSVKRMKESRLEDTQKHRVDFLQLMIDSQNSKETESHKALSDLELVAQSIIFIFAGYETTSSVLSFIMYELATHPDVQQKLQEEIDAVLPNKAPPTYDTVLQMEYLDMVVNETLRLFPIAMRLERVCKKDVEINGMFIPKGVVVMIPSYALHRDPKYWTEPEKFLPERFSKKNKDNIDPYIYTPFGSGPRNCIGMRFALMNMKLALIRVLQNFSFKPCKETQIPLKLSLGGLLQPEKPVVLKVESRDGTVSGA
# Experimental: as §1
# [2] = probe Midazolam, substrate Midazolam, read-out: Relative inhibition rate (%) CYP3A4 (Midazolam)
# [3] = probe Testosterone, substrate Testosterone, read-out: Relative inhibition rate (%) CYP3A4 (Testosterone)
inhibition at 10 µM (CYP1A2) [%],EC50 (hTLR7) [µM],CYP2B6 Induction fold relative to blank control (CYP2B6),CYP2B6 Induction percentage relative to positive control (%) (CYP2B6),inhibition at 10 µM (CYP2D6) [%],inhibition at 10 µM (CYP3A4; [2]) [%],inhibition at 10 µM (CYP3A4; [3]) [%],Compound,CC50 at 24 h [1] [µM]
2.7,68.6,0.4,−5.6,31.4,23.9,11.5,C=CCCN(C)Cc1c[nH]c(=O)cc1-c1ccc2c(N[C@@](C)(CO)CCCC)nc(N)nc2c1 [Example 35],> 100
-4.1,90.3,0.5,−4.8,9.5,15.3,18,CCCC[C@](C)(CO)Nc1nc(N)nc2cc(-c3cc(=O)[nH]cc3CN(C)CCOC)cnc12 [Example 21],> 100
5.1,29.5,0.9,−0.7,12.9,31.1,17.9,"CCCCN(C)Cc1c[nH]c(=O)cc1-c1cnc2c(N[C@@](C)(CO)CCCC)nc(N)nc2c1 [Example 28, (R)-4-(2-Amino-4-((1-hydroxy-2-methylhexan-2-yl)amino)pyrido[3,2-d]pyrimidin-7-yl)-5-((butyl(methyl)amino)methyl)pyridin-2(1H)-one]",> 100
-10.5,> 100,0.6,−4.1,18.1,9.6,6.3,CCCC[C@](C)(CO)Nc1nc(N)nc2cc(-c3cc(=O)n(C)cc3CN3CCCCC3)ccc12 [Example 8],98.3
